Measured values taken from publication PMC6692548, “Characterization of a phospholipid‐regulated β‐galactosidase from Akkermansia muciniphila involved in mucin degradation” (MicrobiologyOpen, 2019).

T1: Amuc_1686_short (Akkermansia muciniphila, UniProt B2UM60)
T1 construct: gene Amuc_1686; signal peptide removed, last 107 amino acids (C-terminal discoidin domain) deleted; N-terminal Strep-tag (pASK-IBA5), E. coli BL21(DE3); primers start at codons AAPMPF and end in DNGPH-stop
T1 sequence (B2UM60 18-673): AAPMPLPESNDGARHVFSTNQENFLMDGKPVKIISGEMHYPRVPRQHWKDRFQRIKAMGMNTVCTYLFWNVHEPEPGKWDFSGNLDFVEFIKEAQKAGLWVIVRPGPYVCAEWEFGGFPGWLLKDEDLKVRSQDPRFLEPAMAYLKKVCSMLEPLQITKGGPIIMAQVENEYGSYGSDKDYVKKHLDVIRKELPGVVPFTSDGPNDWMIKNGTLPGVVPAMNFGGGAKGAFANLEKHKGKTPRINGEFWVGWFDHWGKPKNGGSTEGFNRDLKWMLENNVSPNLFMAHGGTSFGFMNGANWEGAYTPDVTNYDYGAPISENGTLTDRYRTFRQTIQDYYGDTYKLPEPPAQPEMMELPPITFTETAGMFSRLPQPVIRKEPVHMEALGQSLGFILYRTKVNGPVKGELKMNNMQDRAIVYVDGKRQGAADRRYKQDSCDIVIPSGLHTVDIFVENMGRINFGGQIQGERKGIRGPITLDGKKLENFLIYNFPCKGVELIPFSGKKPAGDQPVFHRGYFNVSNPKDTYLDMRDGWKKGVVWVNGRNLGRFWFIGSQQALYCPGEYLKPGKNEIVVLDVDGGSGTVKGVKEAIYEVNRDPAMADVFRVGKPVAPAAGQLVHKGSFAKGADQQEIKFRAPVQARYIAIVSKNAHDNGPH

T2: Amuc_1686 (Akkermansia muciniphila, UniProt B2UM60)
T2 construct: GH35 beta-galactosidase with C-terminal truncated discoidin (F5/8 type C) domain; signal peptide removed (predicted cleavage between 17 and 18), N-terminal Strep-tag kept (pASK-IBA5), E. coli BL21(DE3); 87 kDa tagged (86 kDa encoded); monomer; primers start at codons AAPMPF and end in FKPAK-stop
T2 sequence (B2UM60 18-780): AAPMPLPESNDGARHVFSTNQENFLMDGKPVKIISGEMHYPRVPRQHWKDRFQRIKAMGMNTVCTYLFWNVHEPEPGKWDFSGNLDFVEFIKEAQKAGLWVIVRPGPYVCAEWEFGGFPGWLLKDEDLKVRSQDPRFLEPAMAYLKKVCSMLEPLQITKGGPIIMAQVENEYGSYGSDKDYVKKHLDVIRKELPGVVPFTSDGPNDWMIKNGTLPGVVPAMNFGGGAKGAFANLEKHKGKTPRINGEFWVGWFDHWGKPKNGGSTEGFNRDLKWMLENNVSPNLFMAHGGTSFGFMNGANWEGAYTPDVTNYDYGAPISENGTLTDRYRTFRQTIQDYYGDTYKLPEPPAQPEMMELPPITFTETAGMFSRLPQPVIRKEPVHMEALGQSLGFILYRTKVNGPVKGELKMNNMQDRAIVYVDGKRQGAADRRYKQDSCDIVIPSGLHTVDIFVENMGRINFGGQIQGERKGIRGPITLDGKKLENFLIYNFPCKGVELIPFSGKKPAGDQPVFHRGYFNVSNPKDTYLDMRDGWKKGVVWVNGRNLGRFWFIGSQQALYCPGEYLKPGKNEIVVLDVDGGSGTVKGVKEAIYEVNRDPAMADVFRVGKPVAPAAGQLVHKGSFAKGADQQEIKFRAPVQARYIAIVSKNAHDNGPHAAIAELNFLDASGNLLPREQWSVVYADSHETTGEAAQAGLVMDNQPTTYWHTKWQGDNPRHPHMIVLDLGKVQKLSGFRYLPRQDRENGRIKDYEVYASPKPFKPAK


Experiments:
Amuc_1686_short = biological target: T1, Amuc_1686_short; experiment: photometric 4-nitrophenol release; type: biochemical; conditions: 5 mM substrate; 50 mM combined buffer pH 7.5, 37 °C
Amuc_1686 = biological target: T2, Amuc_1686; experiment: photometric 4-nitrophenol release; type: biochemical; conditions: 5 mM 4-nitrophenyl beta-D-galactopyranoside; 50 mM combined buffer pH 7.5, 37 °C; lipid added in methanol; non-competitive; acyl chains not given
purified protein = substrate: O=[N+]([O-])c1ccc(O[C@@H]2O[C@H](CO)[C@H](O)[C@H](O)[C@H]2O)cc1; experiment: purified protein; conditions: 50 mM combined buffer pH 7.5, 65 °C

Molecule | IC50 (Amuc_1686) | further results
O=[N+]([O-])c1ccc(O[C@@H]2O[C@H](CO)[C@H](O)[C@H](O)[C@H]2O)cc1 [para‐nitrophenyl‐β‐D‐galactopyranoside] |  | photometric 4-nitrophenol release (Amuc_1686_short): the shortened variant exhibited a slightly decreased enzymatic activity
lysophosphatidic acid [LPA] | 13.6 ± 10.6 µM | 
phosphatidic acid [PA] | 4.3 ± 0.2 µM | 
phosphatidylglycerol [PG] | 1 ± 0.1 µM | 
phosphatidylserine [PS] | 29.3 ± 1.5 µM | 
Amuc_1686 (Akkermansia muciniphila ATCC BAA-835) (protein) AAPMPLPESNDGARHVFSTNQENFLMDGKPVKIISGEMHYPRVPRQHWKDRFQRIKAMGMNTVCTYLFWNVHEPEPGKWDFSGNLDFVEFIKEAQKAGLWVIVRPGPYVCAEWEFGGFPGWLLKDEDLKVRSQDPRFLEPAMAYLKKVCSMLEPLQITKGGPIIMAQVENEYGSYGSDKDYVKKHLDVIRKELPGVVPFTSDGPNDWMIKNGTLPGVVPAMNFGGGAKGAFANLEKHKGKTPRINGEFWVGWFDHWGKPKNGGSTEGFNRDLKWMLENNVSPNLFMAHGGTSFGFMNGANWEGAYTPDVTNYDYGAPISENGTLTDRYRTFRQTIQDYYGDTYKLPEPPAQPEMMELPPITFTETAGMFSRLPQPVIRKEPVHMEALGQSLGFILYRTKVNGPVKGELKMNNMQDRAIVYVDGKRQGAADRRYKQDSCDIVIPSGLHTVDIFVENMGRINFGGQIQGERKGIRGPITLDGKKLENFLIYNFPCKGVELIPFSGKKPAGDQPVFHRGYFNVSNPKDTYLDMRDGWKKGVVWVNGRNLGRFWFIGSQQALYCPGEYLKPGKNEIVVLDVDGGSGTVKGVKEAIYEVNRDPAMADVFRVGKPVAPAAGQLVHKGSFAKGADQQEIKFRAPVQARYIAIVSKNAHDNGPHAAIAELNFLDASGNLLPREQWSVVYADSHETTGEAAQAGLVMDNQPTTYWHTKWQGDNPRHPHMIVLDLGKVQKLSGFRYLPRQDRENGRIKDYEVYASPKPFKPAK |  | Km (purified protein): 500 ± 300 µM; kcat (purified protein): 530.3 ± 87.1 s⁻¹
